Experimental data from ChEMBL document CHEMBL4813969, “Design, synthesis and evaluation of 3-amide-5-aryl benzoic acid derivatives as novel P2Y14R antagonists with potential high efficiency against acute gouty arthritis” (Eur J Med Chem, 2021).
Converted amounts (≈) assume the structure as drawn. Blank lines part the entries; values can stand above or below the compound they belong to. The source made the active and inactive calls. The calls are words filed in the database; no cut-off is given here.

Key:
[1] = molecular target: T1, P2Y purinoceptor 14 (Homo sapiens) (UniProt Q15391); details: time 30.0 min
T1 sequence (whole entry): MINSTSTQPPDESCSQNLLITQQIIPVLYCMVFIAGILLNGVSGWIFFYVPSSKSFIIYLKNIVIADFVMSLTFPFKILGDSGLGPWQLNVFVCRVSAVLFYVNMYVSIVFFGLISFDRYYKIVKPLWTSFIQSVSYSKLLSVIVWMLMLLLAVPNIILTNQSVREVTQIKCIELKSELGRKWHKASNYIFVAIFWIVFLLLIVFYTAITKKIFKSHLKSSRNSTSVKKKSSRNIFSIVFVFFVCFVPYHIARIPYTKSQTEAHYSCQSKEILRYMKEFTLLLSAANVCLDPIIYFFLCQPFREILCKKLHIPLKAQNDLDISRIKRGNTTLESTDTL

P2Y purinoceptor 14 = molecular target: T2, P2Y purinoceptor 14 (Homo sapiens, UniProt Q15391); assay: Antagonist activity at P2Y14 (unknown origin) expressed in HEK293 cells assessed as reduction in cAMP production incubated for 30 mins by ADP-glo assay; type: functional, cell-based
T2 sequence (Q15391 whole entry): T1 sequence (whole entry)

[2] = Aqueous solubility of compound in PBS buffer at pH 7.4 incubated for overnight by UV-spectrometry; type: physicochemical
[3] = Chemical stability of compound in DMSO; type: physicochemical
[4] = Metabolic stability in human liver microsomes assessed as half life at […] incubated for 45 mins by LC-MS/MS analysis; type: ADME, Microsome
[5] = Cmax in mouse at 5 mg/kg, iv; type: ADME, organism-based; set-up: route intravenous, dose 5 mg/kg; details: in vivo
[6] = Half life in mouse at 5 mg/kg, iv; type: ADME, organism-based; details: in vivo
[7] = AUC in mouse at 5 mg/kg, iv; type: ADME, organism-based; set-up: dose 5 mg/kg; details: in vivo
[8] = Volume of distribution at steady state in mouse at 5 mg/kg, iv; type: ADME, organism-based; details: in vivo, read-out: Vdss
[9] = Tmax in mouse at 5 mg/kg, iv; type: ADME, organism-based; details: in vivo
[10] = Cmax in mouse at 10 mg/kg, po; type: ADME, organism-based; set-up: route oral, dose 10 mg/kg; details: in vivo
[11] = Half life in mouse at 10 mg/kg, po; type: ADME, organism-based; details: in vivo
[12] = AUC in mouse at 10 mg/kg, po; type: ADME, organism-based; set-up: dose 10 mg/kg; details: in vivo
[13] = Volume of distribution at steady state in mouse at 10 mg/kg, po; type: ADME, organism-based; details: in vivo
[14] = Clearance in mouse at 10 mg/kg, po; type: ADME, organism-based; details: in vivo
[15] = Oral bioavailability in mouse at 10 mg/kg; type: ADME, organism-based; details: in vivo
Mus musculus [16] = assay: Antiarthritic activity against MSU-induced acute gout arthritis ICR mouse model assessed as reduction in paw swelling at 10 mg/kg, sc measured upto 24 hrs; type: functional, organism-based; details: time hrs <=24
Mus musculus [17] = assay: Antiarthritic activity against MSU-induced acute gout arthritis ICR mouse model assessed as reduction in infiltration of inflammatory cells at 10 mg/kg, sc measured upto 24 hrs; type: functional, organism-based; details: time hrs <=24
Mus musculus [18] = assay: Downregulation of MSU-induced NLRP3 expression in foot tissue of MSU-induced acute gout arthritis ICR mouse model at 10 mg/kg, sc measured upto 24 hrs by Western blot analysis; type: functional, organism-based; details: time hrs <=24
Mus musculus [19] = assay: Downregulation of MSU-induced ASC expression in foot tissue of MSU-induced acute gout arthritis ICR mouse model at 10 mg/kg, sc measured upto 24 hrs by Western blot analysis; type: functional, organism-based; details: time hrs <=24
Mus musculus [20] = assay: Downregulation of MSU-induced caspase-1 P20 expression in foot tissue of MSU-induced acute gout arthritis ICR mouse model at 10 mg/kg, sc measured upto 24 hrs by Western blot analysis; type: functional, organism-based; details: time hrs <=24
Mus musculus [21] = assay: Inhibition of MSU-induced IL-1beta level in foot tissue of MSU-induced acute gout arthritis ICR mouse model at 10 mg/kg, sc measured upto 24 hrs by Western blot analysis; type: functional, organism-based; details: time hrs <=24
Mus musculus [22] = assay: Inhibition of MSU-induced IL-8 level in foot tissue of MSU-induced acute gout arthritis ICR mouse model at 10 mg/kg, sc measured upto 24 hrs by Western blot analysis; type: functional, organism-based; details: time hrs <=24
Mus musculus [23] = assay: Inhibition of MSU-induced GSDMD-NT level in foot tissue of MSU-induced acute gout arthritis ICR mouse model at 10 mg/kg, sc measured upto 24 hrs by Western blot analysis; type: functional, organism-based; details: time hrs <=24
[24] = In vivo inhibition of MSU-induced pyroptosis in ICR mouse model of acute gout arthritis assessed as viable macrophage cells in foot tissue at 10 mg/kg, sc incubated for 24 hrs by caspase-1 and PI staining based flow cytometric analysis (reference value: 34.3 %); type: functional
[25] = In vivo inhibition of MSU-induced pyroptosis in ICR mouse model of acute gout arthritis assessed as early apoptotic macrophage cells in foot tissue at 10 mg/kg, sc incubated for 24 hrs by caspase-1 and PI staining based flow cytometric analysis (reference value: 12.7 %); type: functional
[26] = In vivo inhibition of MSU-induced pyroptosis in ICR mouse model of acute gout arthritis assessed as late apoptotic macrophage cells in foot tissue at 10 mg/kg, sc incubated for 24 hrs by caspase-1 and PI staining based flow cytometric analysis (reference value: 21.6 %); type: functional
[27] = In vivo inhibition of MSU-induced pyroptosis in ICR mouse model of acute gout arthritis assessed as necrotic macrophage cells in foot tissue at 10 mg/kg, sc incubated for 24 hrs by caspase-1 and PI staining based flow cytometric analysis (reference value: 31.4 %); type: functional
[28] = HEK293, filed as antagonist, dose 100.0 nM

Structure (SMILES): COc1ncc(-c2cc(NC(=O)c3ccc(C)cc3)cc(C(=O)O)c2)cn1
inhibition [1, 28]: 72.5%

Structure (SMILES): Cc1ccc(C(=O)Nc2cc(C(=O)O)cc(-c3cccnc3)c2)cc1
inhibition [1, 28]: 79.1%

Structure (SMILES): Cc1ccc(C(=O)Nc2cc(C(=O)O)cc(-c3ccccc3)c2)cc1
IC50 (P2Y purinoceptor 14): 4.85 nM | solubility [2]: 46.3 µg/mL (≈ 140 µM) | inhibition [1, 28]: 87%

Structure (SMILES): COc1ccc(-c2cc(NC(=O)c3ccc(C)cc3)cc(C(=O)O)c2)cc1
inhibition [1, 28]: 79.1%

Structure (SMILES): Cc1ccc(C(=O)Nc2cc(C(=O)O)cc(-c3c(C)noc3C)c2)cc1
IC50 (P2Y purinoceptor 14): 2.95 nM | Stabilty [3]: Unstable | inhibition [1, 28]: 82.3%

Structure (SMILES): Cc1ccc(C(=O)Nc2cc(C(=O)O)cc(-c3cnc(N)nc3)c2)cc1
inhibition [1, 28]: 68.6%

Structure (SMILES): Cc1ccc(C(=O)Nc2cc(C(=O)O)cc(-c3ccoc3)c2)cc1
IC50 (P2Y purinoceptor 14): 2.18 nM | Stabilty [3]: Stable | half-life [4]: > 1 h | Cmax [5]: 19300 ng/mL | half-life [6]: 2.32 h | AUC [7]: 843849 ng·min/mL | Vd [8]: 0.782 L/kg | Tmax [9]: 5 min | Cmax [10]: 1800 ng/mL | half-life [11]: 2.56 h | AUC [12]: 7280 ng·h/mL | Vdss [13]: 0.21267 L/kg | CL/F [14]: 6.03 mL/min/kg | bioavailability [15]: 48.3% | solubility [2]: 77.6 µg/mL (≈ 241 µM) | Activity (Mus musculus [16]): Active | Activity (Mus musculus [17]): Active | Activity (Mus musculus [18]): Active | Activity (Mus musculus [19]): Active | Activity (Mus musculus [20]): Active | inhibition (Mus musculus [21]): Active | inhibition (Mus musculus [22]): Active | inhibition (Mus musculus [23]): Active | inhibition in vivo at 10 mg/kg [24]: 43.2% | inhibition in vivo at 10 mg/kg [25]: 13% | inhibition in vivo at 10 mg/kg [26]: 10.9% | inhibition in vivo at 10 mg/kg [27]: 33% | inhibition [1, 28]: 93.4%

Structure (SMILES): Cc1ccc(C(=O)Nc2cc(C(=O)O)cc(-c3ccc[nH]3)c2)cc1
inhibition [1, 28]: 46%

Structure (SMILES): Cc1ccc(C(=O)Nc2cc(C(=O)O)cc(-c3cncnc3)c2)cc1
inhibition [1, 28]: 65.7%

Structure (SMILES): Cc1ccc(C(=O)Nc2cc(C(=O)O)cc(-c3ccc(C4CCNCC4)cc3)c2)cc1
bioavailability [15]: 6% | inhibition [1, 28]: 85.3%

Structure (SMILES): O=C(O)c1cc(-c2ccc(C3CCNCC3)cc2)c2ccc(-c3ccc(C(F)(F)F)cc3)cc2c1 [PPTN]
bioavailability [15]: 7% | solubility [2]: < 5 µg/mL | Activity (Mus musculus [16]): Active | Activity (Mus musculus [17]): Active | Activity (Mus musculus [18]): Active | Activity (Mus musculus [19]): Active | Activity (Mus musculus [20]): Active | inhibition (Mus musculus [21]): Active | inhibition (Mus musculus [22]): Active | inhibition (Mus musculus [23]): Active | inhibition in vivo at 10 mg/kg [24]: 65.1% | inhibition in vivo at 10 mg/kg [25]: 17.3% | inhibition in vivo at 10 mg/kg [26]: 6.41% | inhibition in vivo at 10 mg/kg [27]: 11.1%

Other lines, results leading:

IC50 (P2Y purinoceptor 14): 9.74 nM | inhibition [1, 28]: 83%
Structure (SMILES): Cc1ccc(C(=O)Nc2cc(C(=O)O)cc(-c3ccsc3)c2)cc1

inhibition [1, 28]: 60.2%
Structure (SMILES): Cc1ccc(C(=O)Nc2cc(C(=O)O)cc(-c3ccc(C)s3)c2)cc1

inhibition [1, 28]: 43.7%
Structure (SMILES): CC(=O)c1ccc(-c2cc(NC(=O)c3ccc(C)cc3)cc(C(=O)O)c2)s1

inhibition [1, 28]: 72.1%
Structure (SMILES): Cc1ccc(C(=O)Nc2cc(C(=O)O)cc(-c3ccncc3)c2)cc1

inhibition [1, 28]: 68.8%
Structure (SMILES): Cc1ccc(C(=O)Nc2cc(C(=O)O)cc(-c3cccs3)c2)cc1

IC50 (P2Y purinoceptor 14): 2.63 nM | Stabilty [3]: Unstable | inhibition [1, 28]: 86.8%
Structure (SMILES): Cc1ccc(C(=O)Nc2cc(C(=O)O)cc(-c3cc[nH]n3)c2)cc1

inhibition ([1]; HEK293, dose 100.0 nM): 16.1%
Structure (SMILES): Cc1ccc(C(=O)Nc2cc(C(=O)O)cc(-c3ccc(C)o3)c2)cc1

inhibition [1, 28]: 61.1%
Structure (SMILES): Cc1ccc(C(=O)Nc2cc(C(=O)O)cc(-c3ccco3)c2)cc1
